# Source: patent publication US20220218852A1, “NOVEL RADIOLABELLED CXCR4-TARGETING COMPOUNDS FOR DIAGNOSIS AND THERAPY” (PROVINCIAL HEALTH SERVICES AUTHORITY, priority 2019, published 2022)
# Positions of bridges follow the written chain, without caps; N, C: chain ends. Non-standard residues stand in square brackets, D forms with d. Residues, ends and D or L forms follow the SMILES beside them. Groups on a side chain read outwards from the residue. *: point of attachment. DOTA = O=C(O)CN1CCN(CC(=O)O)CCN(CC(=O)*)CCN(CC(=O)O)CC1; 2Nal = N[C@@H](Cc1ccc2ccccc2c1)C(=O)O; Lys(iPr) = CC(C)NCCCC[C@H](N)C(=O)O
# Experiments:
# Format in all cases: in vivo
# [1] = Biodistribution in Z138 tumor-bearing mice; conditions: male, NOD.Cg-Rag1^tm1MomII2rg^tm1Wjl/SzJ (NRG), mouse, iv, total radioactivity, Z138
# Experimental: (§1) For Daudi, Z138, GRANTA519 and Jeko1 xenografts, male NOD.Cg-Rag1^tm1MomII2rg^tm1Wjl/SzJ (NRG) mice were subcutaneously inoculated on the left flank with 5×10^6 cells (100 μL; 1:1 ratio of PBS/Matrigel) and tumors were grown to a size of 200-500 mm^3. For PC-3 xenografts, male NOD.Cg-Rag1^tm1MomII2rg^tm1Wjl/SzJ (NRG) mice were subcutaneously inoculated on the left flank with 5×10^6 PC-3 cells (100 μL; 1:1 ratio of PBS/Matrigel) and tumors were grown to a size of 200-400 mm^3.
# (§2) The mice were euthanized via CO2 inhalation while anesthetized with isoflurane. Tissues were harvested, washed in PBS, blotted dry, weighed, and measured on a Hidex AMG Automatic Gamma Counter.
# [2] = tested on: Z138 mantle cell lymphoma xenografts; assay: Biodistribution in Z138 tumor-bearing mice; conditions: Z138
# Experimental: as §1, §2
# [3] = Biodistribution in GRANTA519 tumor-bearing mice; conditions: male, NOD.Cg-Rag1^tm1MomII2rg^tm1Wjl/SzJ (NRG), mouse, iv, total radioactivity, GRANTA519
# Experimental: as §1, §2
# [4] = tested on: GRANTA519 mantle cell lymphoma xenografts; assay: Biodistribution in GRANTA519 tumor-bearing mice; conditions: GRANTA519
# Experimental: as §1, §2
# [5] = adrenals, 1 h, read-out: Biodistribution Adrenals
# [6] = adrenals, 1 h blocked (7.5 μg LY2510924 i.p.), read-out: Biodistribution Adrenals
# [7] = bone, 1 h, read-out: Biodistribution Bone
# [8] = bone, 1 h blocked (7.5 μg LY2510924 i.p.), read-out: Biodistribution Bone
# [9] = brain, 1 h, read-out: Biodistribution Brain
# [10] = brain, 1 h blocked (7.5 μg LY2510924 i.p.), read-out: Biodistribution Brain
# [11] = fat, 1 h, read-out: Biodistribution Fat
# [12] = fat, 1 h blocked (7.5 μg LY2510924 i.p.), read-out: Biodistribution Fat
# [13] = heart, 1 h, read-out: Biodistribution Heart
# [14] = heart, 1 h blocked (7.5 μg LY2510924 i.p.), read-out: Biodistribution Heart
# [15] = intestine, 1 h, read-out: Biodistribution Intestine
# [16] = intestine, 1 h blocked (7.5 μg LY2510924 i.p.), read-out: Biodistribution Intestine
# [17] = kidney, 1 h, read-out: Biodistribution Kidney
# [18] = kidney, 1 h blocked (7.5 μg LY2510924 i.p.), read-out: Biodistribution Kidney
# [19] = liver, 1 h, read-out: Biodistribution Liver
# [20] = liver, 1 h blocked (7.5 μg LY2510924 i.p.), read-out: Biodistribution Liver
# [21] = lung, 1 h, read-out: Biodistribution Lung
# [22] = lung, 1 h blocked (7.5 μg LY2510924 i.p.), read-out: Biodistribution Lung
# [23] = muscle, 1 h, read-out: Biodistribution Muscle
# [24] = muscle, 1 h blocked (7.5 μg LY2510924 i.p.), read-out: Biodistribution Muscle
# [25] = pancreas, 1 h, read-out: Biodistribution Pancreas
# [26] = pancreas, 1 h blocked (7.5 μg LY2510924 i.p.), read-out: Biodistribution Pancreas
# [27] = spleen, 1 h, read-out: Biodistribution Spleen
# [28] = spleen, 1 h blocked (7.5 μg LY2510924 i.p.), read-out: Biodistribution Spleen
# [29] = stomach, 1 h, read-out: Biodistribution Stomach
# [30] = stomach, 1 h blocked (7.5 μg LY2510924 i.p.), read-out: Biodistribution Stomach
# [31] = testes, 1 h, read-out: Biodistribution Testes
# [32] = testes, 1 h blocked (7.5 μg LY2510924 i.p.), read-out: Biodistribution Testes
# [33] = 1 h blocked (7.5 μg LY2510924 i.p.)
smiles,measurement,setting,value
"CC(C)NCCCC[C@@H]1NC(=O)[C@H](Cc2ccc(O)cc2)NC(=O)[C@H](Cc2ccccc2)NC(=O)CC[C@H](C(=O)N[C@@H](CCCCNC(C)C)C(=O)N[C@@H](CCCCNC(=O)[C@H](CCC(=O)O)NC(=O)[C@H](CCC(=O)O)NC(=O)[C@H](CCC(=O)O)NC(=O)CN2CCN(CC(=O)O)CCN(CC(=O)O)CCN(CC(=O)O)CC2)C(N)=O)NC(=O)CNC(=O)[C@H](Cc2ccc3ccccc3c2)NC(=O)[C@@H](CCCNC(=N)N)NC1=O [[^68Ga]Ga-BL02, metal not drawn] (FY[Lys(iPr)][dR][2Nal]G[dE][Lys(iPr)]K([Glu-Glu-Glu-DOTA])-NH2; lactam N-7)",tissue uptake at 1 h,"[1]; Z138 tumor, 1 h, read-out: Biodistribution Z138 (tumor)",12.9 %ID/g
same,tissue uptake at 1 h,"[1]; Z138 tumor, 1 h blocked (7.5 μg LY2510924 i.p.), read-out: Biodistribution Z138 (tumor)",2.86 %ID/g
same,tissue uptake at 1 h,[1]; [5],0.14 %ID/g
same,tissue uptake at 1 h,[1]; [6],0.59 %ID/g
same,tissue uptake at 1 h,"[1]; blood, 1 h, read-out: Biodistribution Blood",0.3 %ID/g
same,tissue uptake at 1 h,"[1]; blood, 1 h blocked (7.5 μg LY2510924 i.p.), read-out: Biodistribution Blood",0.83 %ID/g
same,tissue uptake at 1 h,[1]; [7],0.08 %ID/g
same,tissue uptake at 1 h,[1]; [8],0.2 %ID/g
same,tissue uptake at 1 h,[1]; [9],0.01 %ID/g
same,tissue uptake at 1 h,[1]; [10],0.02 %ID/g
same,tissue uptake at 1 h,[1]; [11],0.04 %ID/g
same,tissue uptake at 1 h,[1]; [12],0.14 %ID/g
same,tissue uptake at 1 h,[1]; [13],0.11 %ID/g
same,tissue uptake at 1 h,[1]; [14],0.24 %ID/g
same,tissue uptake at 1 h,[1]; [15],0.19 %ID/g
same,tissue uptake at 1 h,[1]; [16],0.61 %ID/g
same,tissue uptake at 1 h,[1]; [17],3.48 %ID/g
same,tissue uptake at 1 h,[1]; [18],7.86 %ID/g
same,tissue uptake at 1 h,[1]; [19],0.48 %ID/g
same,tissue uptake at 1 h,[1]; [20],0.55 %ID/g
same,tissue uptake at 1 h,[1]; [21],0.5 %ID/g
same,tissue uptake at 1 h,[1]; [22],0.85 %ID/g
same,tissue uptake at 1 h,[1]; [23],0.05 %ID/g
same,tissue uptake at 1 h,[1]; [24],0.15 %ID/g
same,tissue uptake at 1 h,[1]; [25],0.08 %ID/g
same,tissue uptake at 1 h,[1]; [26],0.21 %ID/g
same,tissue uptake at 1 h,[1]; [27],0.33 %ID/g
same,tissue uptake at 1 h,[1]; [28],0.43 %ID/g
same,tissue uptake at 1 h,[1]; [29],0.07 %ID/g
same,tissue uptake at 1 h,[1]; [30],0.16 %ID/g
same,tissue uptake at 1 h,[1]; [31],0.11 %ID/g
same,tissue uptake at 1 h,[1]; [32],0.26 %ID/g
same,Ratio Tumor: Blood,[2]; 1 h,43.12
same,Ratio Tumor: Bone,[2]; 1 h,163.06
same,Ratio Tumor: Liver,[2]; 1 h,26.89
same,Ratio Tumor: Lung,[2]; 1 h,26.39
same,Ratio Tumor: Muscle,[2]; 1 h,240.96
same,Ratio Tumor: Spleen,[2]; 1 h,39.22
same,Ratio Tumor: Blood,[2]; [33],3.94
same,Ratio Tumor: Bone,[2]; [33],19.08
same,Ratio Tumor: Liver,[2]; [33],5.23
same,Ratio Tumor: Lung,[2]; [33],3.65
same,Ratio Tumor: Muscle,[2]; [33],21.59
same,Ratio Tumor: Spleen,[2]; [33],7.40
same,tissue uptake at 1 h,[3]; [5],3.48 %ID/g
same,tissue uptake at 1 h,[3]; [6],7.4 %ID/g
same,tissue uptake at 1 h,[3]; [7],0.16 %ID/g
same,tissue uptake at 1 h,[3]; [8],0.25 %ID/g
same,tissue uptake at 1 h,[3]; [9],0.01 %ID/g
same,tissue uptake at 1 h,[3]; [10],0.02 %ID/g
same,tissue uptake at 1 h,[3]; [11],0.05 %ID/g
same,tissue uptake at 1 h,[3]; [12],0.1 %ID/g
same,tissue uptake at 1 h,[3]; [13],0.49 %ID/g
same,tissue uptake at 1 h,[3]; [14],0.53 %ID/g
same,tissue uptake at 1 h,[3]; [15],0.22 %ID/g
same,tissue uptake at 1 h,[3]; [16],0.46 %ID/g
same,tissue uptake at 1 h,[3]; [17],0.62 %ID/g
same,tissue uptake at 1 h,[3]; [18],0.81 %ID/g
same,tissue uptake at 1 h,[3]; [19],0.09 %ID/g
same,tissue uptake at 1 h,[3]; [20],0.19 %ID/g
same,tissue uptake at 1 h,[3]; [21],0.12 %ID/g
same,tissue uptake at 1 h,[3]; [22],0.25 %ID/g
same,tissue uptake at 1 h,[3]; [23],0.07 %ID/g
same,tissue uptake at 1 h,[3]; [24],0.14 %ID/g
same,tissue uptake at 1 h,[3]; [25],0.2 %ID/g
same,tissue uptake at 1 h,[3]; [26],0.34 %ID/g
same,tissue uptake at 1 h,[3]; [27],0.49 %ID/g
same,tissue uptake at 1 h,[3]; [28],0.53 %ID/g
same,tissue uptake at 1 h,[3]; [29],0.05 %ID/g
same,tissue uptake at 1 h,[3]; [30],0.12 %ID/g
same,tissue uptake at 1 h,[3]; [31],0.16 %ID/g
same,tissue uptake at 1 h,[3]; [32],0.2 %ID/g
same,tissue uptake at 1 h,"[3]; tumor (GRANTA519 xenograft), 1 h, read-out: Biodistribution GRANTA519 (tumor)",5.5 %ID/g
same,tissue uptake at 1 h,"[3]; tumor (GRANTA519 xenograft), 1 h blocked (7.5 μg LY2510924 i.p.), read-out: Biodistribution GRANTA519 (tumor)",0.72 %ID/g
same,tissue uptake at 1 h,"[3]; whole blood, 1 h, read-out: Biodistribution Blood",0.41 %ID/g
same,tissue uptake at 1 h,"[3]; whole blood, 1 h blocked (7.5 μg LY2510924 i.p.), read-out: Biodistribution Blood",0.83 %ID/g
same,Ratio Tumor: Blood,[4]; 1 h,13.83
same,Ratio Tumor: Bone,[4]; 1 h,45.39
same,Ratio Tumor: Liver,[4]; 1 h,11.28
same,Ratio Tumor: Lung,[4]; 1 h,9.12
same,Ratio Tumor: Muscle,[4]; 1 h,83.17
same,Ratio Tumor: Spleen,[4]; 1 h,15.86
same,Ratio Tumor: Blood,[4]; [33],0.94
same,Ratio Tumor: Bone,[4]; [33],4.27
same,Ratio Tumor: Liver,[4]; [33],1.37
same,Ratio Tumor: Lung,[4]; [33],0.96
same,Ratio Tumor: Muscle,[4]; [33],5.36
same,Ratio Tumor: Spleen,[4]; [33],1.78
